Like-named read-outs stand apart in the source and are kept apart here.
Experiments:
[1] = system: carrageenin-induced foot edema; test: inhibition of carrageenin-induced foot edema test (C.E.); assay type: in vivo; conditions: oral, read-out: C.E. percent inhibition
[2] = system: phenyl-p-quinone-induced writhing; test: phenyl-p-quinone-induced writhing test (PPQ); assay type: in vivo, mice; conditions: Mus musculus, po
Excerpt: (§1) The test procedures used to determine the analgesic activities of the compounds have been described in detail in the prior art and are as follows: the acetylcholine-induced abdominal constriction test, which is a primary analgesic screening test designed to measure the ability of a test agent to suppress acetylcholine-induced abdominal constriction in mice, described by Collier et al., Brit. J. Pharmacol. Chemotherap. 32, 295 (1968); a modification of the anti-bradykinin test, which is also a primary analgesic screening procedure, described by Berkowitz et al., J. Pharmacol. Exp. Therap. 177, 500-508 (1971), Blane et al., J. Pharm. Pharmacol. 19, 367-373 (1967), Botha et al., Eur. J. Pharmacol. 6, 312-321 (1969) and Deffenu et al., J. Pharm. Pharmacol. 18, 135 (1966); the phenyl-p-quinone-induced writhing test, also a primary analgesic screening test, designed to measure the ability of a test agent to prevent phenyl-p-quinone-induced writhing in mice, described by Pearl and Harris, J. Pharmacol. Exptl. Therap. 154, 319-323 (1966); the rat tail flick radiant thermal heat analgesic (agonist) test described by D'Amour and Smith, J. Pharmacol. Exptl. Therap. 72, 74 (1941) as modified by Bass and VanderBrook, J. Am. Pharm. Assoc. Sci. Ed. […]

[3] = system: rat tail flick response; test: rat tail flick radiant thermal heat analgesic (agonist) test (T.F. Ag.); conditions: in vivo
Excerpt: as §1

[4] = system: acetylcholine-induced abdominal constriction; test: acetylcholine-induced abdominal constriction test (Ach); assay type: in vivo, mice; conditions: Mus musculus, read-out: Ach ED50
Excerpt: J. Pharmacol. Chemotherap. 32, 295 (1968); a modification of the anti-bradykinin test, which is also a primary analgesic screening procedure, described by Berkowitz et al., J. Pharmacol. Exp. Therap. 177, 500-508 (1971), Blane et al., J. Pharm. Pharmacol. 19, 367-373 (1967), Botha et al., Eur. J. Pharmacol. 6, 312-321 (1969) and Deffenu et al., J. Pharm. Pharmacol. 18, 135 (1966); the phenyl-p-quinone-induced writhing test, also a primary analgesic screening test, designed to measure the ability of a test agent to prevent phenyl-p-quinone-induced writhing in mice, described by Pearl and Harris, J. Pharmacol. Exptl. Therap. 154, 319-323 (1966); the rat tail flick radiant thermal heat analgesic (agonist) test described by D'Amour and Smith, J. Pharmacol. Exptl. Therap. 72, 74 (1941) as modified by Bass and VanderBrook, J. Am. Pharm. Assoc. Sci. Ed. 41, 569 (1956); and the phenazocine antagonist test, which is designed to measure the ability of a test agent to antagonize the effect of phenazocine in the above-indicated rat tail flick response test, described by Harris and Pierson, J. Pharmacol. Exptl. Therap. 143, 141 (1964).
The ED50 is the calculated Effective Dose in 50% of the test animals. The abbreviations s.c., p.o. and i.p. stand for subcutaneous, peroral and intraperitoneal routes of administration, respectively. The compounds are identified by the Example numbers above where their preparations are described.

[5] = system: bradykinin; test: anti-bradykinin test (BDK); assay type: in vivo
Excerpt: The test procedures used to determine the analgesic activities of the compounds have been described in detail in the prior art and are as follows: the acetylcholine-induced abdominal constriction test, which is a primary analgesic screening test designed to measure the ability of a test agent to suppress acetylcholine-induced abdominal constriction in mice, described by Collier et al., Brit. J. Pharmacol. Chemotherap. 32, 295 (1968); a modification of the anti-bradykinin test, which is also a primary analgesic screening procedure, described by Berkowitz et al., J. Pharmacol. Exp. Therap. 177, 500-508 (1971), Blane et al., J. Pharm. Pharmacol. 19, 367-373 (1967), Botha et al., Eur. J. Pharmacol. 6, 312-321 (1969) and Deffenu et al., J. Pharm. Pharmacol. 18, 135 (1966); the phenyl-p-quinone-induced writhing test, also a primary analgesic screening test, designed to measure the ability of a test agent to prevent phenyl-p-quinone-induced writhing in mice, described by Pearl and Harris, J. Pharmacol. Exptl. Therap. 154, 319-323 (1966); the rat tail flick radiant thermal heat analgesic (agonist) test described by D'Amour and Smith, J. Pharmacol. Exptl. Therap. 72, 74 (1941) as modified by Bass and VanderBrook, J. Am. Pharm. Assoc. Sci. Ed. 41, 569 (1956); and the phenazocine antagonist test, which is designed to measure the ability of a test agent to antagonize the effect of phenazocine in the above-indicated rat tail flick response test, described by Harris and Pierson, J. Pharmacol. Exptl. Therap. 143, 141 (1964).
Data so obtained for the species found active in one or more of these tests are given in TABLE C below, results being expressed either in terms of the ED50 or, in the acetylcholine-induced writhing test, as the percent inhibition of writhing in the test animals at a given dose level. The ED50 is the calculated Effective Dose in 50% of the test animals. The abbreviations s.c., p.o. and i.p. stand for subcutaneous, peroral and intraperitoneal routes of administration, respectively. The compounds are identified by the Example numbers above where their preparations are described.

[6] = antipyretic activity in the rat; assay type: in vivo
[7] = system: effect of phenazocine in the rat tail flick response; test: phenazocine antagonist test in the rat tail flick response (T.F. Antag.); conditions: in vivo
Excerpt: as §1

SMILES | inhibition in vivo at 80 µmol/kg ([1]; dose 0.08 millimoles/kg) | inhibition in vivo at 324 µmol/kg ([1]; dose 0.324 millimoles/kg) | ED50 [2] | T.F. Ag. [3] | ED50 ([4]; po) | ED50 ([4]; sc) | ED50 ([5]; ip) | ED50 ([5]; po) | antipyretic activity ([6]; 3.25 mg./kg. p.o.) | antipyretic activity ([6]; 6.5 mg./kg. p.o.) | antipyretic activity ([6]; 13 mg./kg. p.o.) | antipyretic activity ([6]; 26 mg./kg. p.o.) | T.F. Antag. [7]
CC(CN1CCOCC1)c1cccc(C(=O)c2ccccc2)c1.Cl.O (stereo not shown) [7H (HCl), 4-[2-(3-benzoylphenyl)propyl]morpholine hydrochloride monohydrate] | 68% | 73% | 132 mg/kg | Inac. | 8.4 mg/kg | 14 mg/kg | 82 mg/kg | 13 mg/kg | not at 3.25 mg./kg. | Showed significant antipyretic activity | Showed significant antipyretic activity | Showed significant antipyretic activity | Inac.
CC(CN1CCC2(CC1)OCCO2)c1cccc(C(=O)c2ccccc2)c1 (stereo not shown) [Example 7G, 8-[2-(3-Benzoylphenyl)propyl]-1,4-dioxa-8-azaspiro[4,5]decane] |  |  | 200 mg/kg | Inac. | 4.7 mg/kg |  |  | 14 mg/kg | not at 6.5 or 3.25 mg./kg. | not at 6.5 or 3.25 mg./kg. | Showed significant antipyretic activity | Showed significant antipyretic activity | Inac.

Reference: patent US4417052A, “Phenyl-lower-alkyl piperidines and pyrrolidines” (Sterling Drug Inc., priority 1981, dated 1983)
